# Experimental data from US20210122781A1, “STAPLED PEPTIDES” (Agency for Science, Technology and Research, priority 2017, published 2021).
# “Also recorded” adds a separate entry of the source. Bridge positions count the residues as written; N and C are the ends. Square brackets hold non-standard residues; d marks the D form. Peptide text beside a SMILES is read from it. R8 = C=CCCCCCC[C@@](C)(N)C(=O)O; S5 = C=CCCC[C@](C)(N)C(=O)O; Ahx = NCCCCCC(=O)O
# Columns and labels:
# p53 protein levels = experiment: p53 staining of spleens from p53 wild type mice after IP injection of peptide; type: in vivo; conditions: normal p53 wild type mice, 40 mg/kg IP, spleens harvested 5 hours post injection, late- vs early-eluting isomer
# Method: FIG. 5. Spleen samples of wildtype-p53 mice harvested 5 hours after intraperitoneal injection with either DMSO (vehicle) or the early or late eluting isomer of stapled peptides VIP82, VIP115 or VIP116. […] A subset of the peptide analogues was subsequently assessed for their ability to stabilise p53 protein levels in proliferating cells. In particular, lysine-containing peptides were chosen due to their enhanced solubility in biological buffers. Normal p53 wild type mice were administered with either vehicle (DMSO) or 40 mg/kg of peptide via IP. Spleens were then harvested 5 hours post injection and histological samples were processed for p53 staining (FIG. 5).
# p53 stabilization = experiment: p53 IHC staining of spleen and tumour from C57BL/6 mice bearing B16F10 melanoma allograft; type: in vivo; conditions: C57BL/6 mice with B16F10 melanoma allograft, 40 mg/kg intraperitoneal, harvested 6 hours post injection, listed as VIP116 late-eluting isomer
# Method: FIG. 6. Photomicrographs of (A) spleen and (B) tumour samples from C57BL/6 mice after treatment with DMSO vehicle or p53-stabilising stapled peptide isomers VIP116 (both early-eluting and late-eluting isomers) and ATSP-7041 (late-eluting isomer only).
# The stapled peptides VIP116 (both early-eluting and late-eluting isomers) and ATSP-7041 (late-eluting isomer) were injected into C57BL/6 mice bearing an allograft tumour (B16F10 melanoma cells) via intraperitoneal injection at a dose of 40 mg/kg. The spleen and tumour were both harvested from the mice 6 hours post injection. The p53 stabilization was detected and visualised in harvested tissue samples by p53 IHC staining (FIG. 6). A vehicle (2% DMSO in HBSS buffer) was used as a control.
compound,measurement,setting,value
CC(=O)N[C@@H](CCCCN)C(=O)N[C@@H](CCCCN)C(=O)NCCCCCC(=O)N[C@H](C(=O)N[C@@H](CO)C(=O)N[C@@H](Cc1ccccc1)C(=O)N[C@]1(C)CCCCCC/C=C/CCC[C@@](C)(C(=O)N[C@@H](CCC(=O)O)C(=O)N[C@@H](CC(N)=O)C(=O)N[C@@H](Cc2ccccc2)C(N)=O)NC(=O)[C@H](CC(C)C)NC(=O)[C@H](CC(C)C)NC(=O)[C@H](C)NC(=O)[C@H](Cc2c[nH]c3ccccc23)NC(=O)[C@H](Cc2ccc(O)cc2)NC(=O)[C@H](CCC(=O)O)NC1=O)[C@@H](C)O [VIP82-Late] (Ac-KK[Ahx]TSF[R8]EYWALL[S5]ENF-NH2; staple (E) 7-14),p53 protein level / expression in spleen (p53 staining),"p53 protein levels; listed as VIP82 late eluting isomer, 40 mg/kg",higher in the late eluting isomer
same,p53 protein level / expression in spleen (p53 staining),"p53 protein levels; listed as VIP82 late-eluting isomer, 40 mg/kg",higher concentration of p53 in mouse tissues compared to the early-eluting isomer
CC(=O)N[C@@H](CCCCN)C(=O)N[C@@H](CCCCN)C(=O)N[C@@H](CCCCN)C(=O)NCCCCCC(=O)N[C@H](C(=O)N[C@@H](CO)C(=O)N[C@@H](Cc1ccccc1)C(=O)N[C@]1(C)CCCCCC/C=C/CCC[C@@](C)(C(=O)N[C@@H](CCC(=O)O)C(=O)N[C@@H](CC(N)=O)C(=O)N[C@@H](Cc2ccccc2)C(N)=O)NC(=O)[C@H](CC(C)C)NC(=O)[C@H](CC(C)C)NC(=O)[C@H](C)NC(=O)[C@H](Cc2c[nH]c3ccccc23)NC(=O)[C@H](Cc2ccc(O)cc2)NC(=O)[C@H](CCC(=O)O)NC1=O)[C@@H](C)O [VIP115-Late] (Ac-KKK[Ahx]TSF[R8]EYWALL[S5]ENF-NH2; staple (E) 8-15),p53 protein level / expression in spleen (p53 staining),"p53 protein levels; listed as VIP115 late eluting isomer, 40 mg/kg",higher in the late eluting isomer
same,p53 protein level / expression in spleen (p53 staining),"p53 protein levels; listed as VIP115 late-eluting isomer, 40 mg/kg",higher concentration of p53 in mouse tissues compared to the early-eluting isomer
CC(=O)N[C@@H](CCCCN)C(=O)NCCCCCC(=O)N[C@H](C(=O)N[C@@H](CO)C(=O)N[C@@H](Cc1ccccc1)C(=O)N[C@]1(C)CCCCCC/C=C/CCC[C@@](C)(C(=O)N[C@@H](CCC(=O)O)C(=O)N[C@@H](CC(N)=O)C(=O)N[C@@H](Cc2ccccc2)C(N)=O)NC(=O)[C@H](CC(C)C)NC(=O)[C@H](CC(C)C)NC(=O)[C@H](C)NC(=O)[C@H](Cc2c[nH]c3ccccc23)NC(=O)[C@H](Cc2ccc(O)cc2)NC(=O)[C@H](CCC(=O)O)NC1=O)[C@@H](C)O [VIP116-Late],p53 protein level / expression in spleen (p53 staining),p53 protein levels,as active as the early-isomer
same,p53 activation response (p53 IHC staining) in spleen and tumour,p53 stabilization,higher p53 activation response in both spleen and tumour samples; also recorded: more potent than the late-eluting isomer of ATSP-7041
